According to paper PMC6803848, “Exploring New Structural Features of the 18β-Glycyrrhetinic Acid Scaffold for the Inhibition of Anaplastic Lymphoma Kinase” (Molecules, 2019):
In brackets after ≈: the same amount, converted by molar mass.

Assays:
Karpas299 = test: MTT antiproliferative assay, Karpas299 cells; type: cell-based; details: Homo sapiens, KARPAS-299
Procedure: (§1) All the cells were seeded in 96-well plates and incubated with 5% CO2 at 37 °C for 24 h. Next, the compounds and the reference were dissolved into the culture medium. The final concentration of DMSO in the medium was less than 0.5%. After the cells were treated with compounds for 48 h, the supernatant was removed and 5 mg/mL of a fresh prepared solution of MTT was added to each well and incubated with the cells at 37 °C for another 4 h. The medium was removed, and 100 μL of testing solution was added to each well. After an overnight incubation with 5% CO2 at 37 °C, the absorbance was measured at 490/630 nm by the microplate reader. The IC50 was calculated using GraphPad Prism version 6.0 software (San Diego, CA, USA) from the non-linear curve.

HepG2 = test: MTT antiproliferative assay, HepG2 cells; type: cell-based; details: Homo sapiens
Procedure: as §1

MCF-7 = test: MTT antiproliferative assay, MCF-7 cells; type: cell-based; details: Homo sapiens, MCF7; MCF-7, MTT
Procedure: as §1

HT29 = test: MTT antiproliferative assay, HT29 cells; type: cell-based; details: Homo sapiens, HT-29; for inhibition at 2 µg/mL: HT29, 2 μg/mL; for inhibition at 2 µg/mL / inhibition at 20 µg/mL: 48 h, MTT, read-out: Antiproliferative activity (growth inhibition, %); for inhibition at 20 µg/mL: HT29, 20 μg/mL; for IC50: HT29, MTT
Procedure: as §1

A549 = test: MTT antiproliferative assay, A549 cells; type: cell-based; details: Homo sapiens; for inhibition at 2 µg/mL: A549, 2 μg/mL; for inhibition at 2 µg/mL / inhibition at 20 µg/mL: 48 h, MTT, read-out: Antiproliferative activity (growth inhibition, %); for inhibition at 20 µg/mL: A549, 20 μg/mL; for IC50: A549, MTT
Procedure: as §1

PC-3 = test: MTT antiproliferative assay, PC-3 cells; type: cell-based; details: Homo sapiens; PC-3, MTT
Procedure: as §1

IC50 (Karpas299)	IC50 (HepG2)	IC50 (MCF-7)	IC50 (HT29)	IC50 (A549)	IC50 (PC-3)	SMILES	melting point	inhibition at 2 µg/mL (HT29)	inhibition at 20 µg/mL (HT29)	inhibition at 2 µg/mL (A549)	inhibition at 20 µg/mL (A549)
12.3 µg/mL (≈ 18.7 µM)	11.6 µg/mL (≈ 17.6 µM)	9.31 µg/mL (≈ 14.1 µM)	11.4 µg/mL (≈ 17.4 µM)	11.2 µg/mL (≈ 17 µM)	11.9 µg/mL (≈ 18.1 µM)	CC1(C)C2CC[C@]3(C)[C@H](C(=O)C=C4[C@@H]5C[C@@](C)(C(=O)O)CC[C@]5(C)CC[C@]43C)[C@@]2(C)CC[C@@H]1OC(=O)Nc1ccc(Cl)c(Cl)c1 (stereo partly drawn) [3a, 3β-(((3,4-dichlorophenyl)carbamoyl)oxy)-11-oxo-olean-12-en-30-oic acid]	260 to 261.4 °C	11.3%	98%	23.9%	95.9%
18.6 µg/mL (≈ 26.8 µM)	9.25 µg/mL (≈ 13.4 µM)	8.92 µg/mL (≈ 12.9 µM)	12 µg/mL (≈ 17.3 µM)	11.9 µg/mL (≈ 17.2 µM)	12.1 µg/mL (≈ 17.4 µM)	CC1(C)C2CC[C@]3(C)[C@H](C(=O)C=C4[C@@H]5C[C@@](C)(C(=O)O)CC[C@]5(C)CC[C@]43C)[C@@]2(C)CC[C@@H]1OC(=O)Nc1ccc(Cl)c(C(F)(F)F)c1 (stereo partly drawn) [3b, 3β-(((4-chloro-3-(trifluoromethyl)phenyl)carbamoyl)oxy)-11-oxo-olean-12-en-30-oic acid]	247.8 to 248.5 °C	14.1%	87.7%	14%	77.3%
15.5 µg/mL (≈ 23.5 µM)	10.7 µg/mL (≈ 16.2 µM)	5.53 µg/mL (≈ 8.4 µM)	9.74 µg/mL (≈ 14.8 µM)	12.3 µg/mL (≈ 18.6 µM)	15 µg/mL (≈ 22.7 µM)	CC1(C)C2CC[C@]3(C)[C@H](C(=O)C=C4[C@@H]5C[C@@](C)(C(=O)O)CC[C@]5(C)CC[C@]43C)[C@@]2(C)CC[C@@H]1OC(=O)Nc1cc(Cl)cc(Cl)c1 (stereo partly drawn) [3c, 3β-(((3,5-dichlorophenyl)carbamoyl)oxy)-11-oxo-olean-12-en-30-oic acid]	236.1 to 237.7 °C	8.39%	98.6%	18.5%	95.4%
7.31 µg/mL (≈ 11.7 µM)	11.9 µg/mL (≈ 19.1 µM)	8.51 µg/mL (≈ 13.6 µM)	10.9 µg/mL (≈ 17.5 µM)	11.3 µg/mL (≈ 18.2 µM)	9.75 µg/mL (≈ 15.6 µM)	CC1(C)C2CC[C@]3(C)[C@H](C(=O)C=C4[C@@H]5C[C@@](C)(C(=O)O)CC[C@]5(C)CC[C@]43C)[C@@]2(C)CC[C@@H]1OC(=O)Nc1cccc(Cl)c1 (stereo partly drawn) [3e, 3β-(((3-chlorophenyl)carbamoyl)oxy)-11-oxo-olean-12-en-30-oic acid]	–	18.8%	96.4%	14.3%	74.9%
0.28 µg/mL (≈ 0.622 µM)	2.15 µg/mL (≈ 4.77 µM)	1.84 µg/mL (≈ 4.09 µM)	0.67 µg/mL (≈ 1.49 µM)	1.27 µg/mL (≈ 2.82 µM)	3.3 µg/mL (≈ 7.33 µM)	C[C@@H](Oc1cc(-c2cnn(C3CCNCC3)c2)cnc1N)c1c(Cl)ccc(F)c1Cl [Crizotinib, reference compound]	–	68.8%	99.8%	67.6%	97.3%

More lines, now with the values behind:

SMILES	IC50 (Karpas299)	IC50 (HepG2)	IC50 (MCF-7)	IC50 (HT29)	IC50 (A549)	IC50 (PC-3)	melting point	inhibition at 2 µg/mL (HT29)	inhibition at 20 µg/mL (HT29)	inhibition at 2 µg/mL (A549)	inhibition at 20 µg/mL (A549)
CC1(C)C2CC[C@]3(C)[C@H](C(=O)C=C4[C@@H]5C[C@@](C)(C(=O)O)CC[C@]5(C)CC[C@]43C)[C@@]2(C)CC[C@@H]1OC(=O)Nc1ccc(OC(F)(F)F)cc1 (stereo partly drawn) [3n, 3β-(((4-(trifluoromethoxy)phenyl)carbamoyl)oxy)-11-oxo-olean-12-en-30-oic acid]	26 µg/mL (≈ 38.5 µM)	12.6 µg/mL (≈ 18.6 µM)	9.3 µg/mL (≈ 13.8 µM)	11.3 µg/mL (≈ 16.8 µM)	7.42 µg/mL (≈ 11 µM)	13.3 µg/mL (≈ 19.8 µM)	256.4 to 258.4 °C	19%	97.7%	20.1%	97.1%
Cc1cc(C)cc(NC(=O)O[C@H]2CC[C@@]3(C)C(CC[C@]4(C)[C@@H]3C(=O)C=C3[C@@H]5C[C@@](C)(C(=O)O)CC[C@]5(C)CC[C@]34C)C2(C)C)c1 (stereo partly drawn) [3o, 3β-(((3,5-dimethylphenyl)carbamoyl)oxy)-11-oxo-olean-12-en-30-oic acid]	11.4 µg/mL (≈ 18.5 µM)	4.75 µg/mL (≈ 7.69 µM)	7.86 µg/mL (≈ 12.7 µM)	7.3 µg/mL (≈ 11.8 µM)	3.24 µg/mL (≈ 5.24 µM)	10.7 µg/mL (≈ 17.3 µM)	279.8 to 280.6 °C	55.8%	98.2%	24.4%	86.3%
CC1(C(=O)N2CCOCC2)CCC2(C)CCC3(C)C(=CC(=O)C4C5(C)CCC(OC(=O)Nc6ccc(OC(F)(F)F)cc6)C(C)(C)C5CCC43C)C2C1 (stereo not drawn) [4n, 3β-(((4-(trifluoromethoxy)phenyl)carbamoyl)oxy)-30-morpholino-olean-12-ene-11,30-dione]	–	–	–	–	–	–	308 to 310.1 °C	7.12%	40.2%	0%	0%
CC1(C)C2CC[C@]3(C)[C@H](C(=O)C=C4[C@@H]5C[C@@](C)(C(=O)O)CC[C@]5(C)CC[C@]43C)[C@@]2(C)CC[C@@H]1OC(=O)CN1CCOCC1 (stereo partly drawn) [6a, 3β-(2-morpholinoacetoxy)-11-oxo-olean-12-en-30-oic acid]	–	–	–	–	–	–	275.3 to 276.4 °C	0%	0%	0%	0%
CC1(C)C2CC[C@]3(C)[C@H](C(=O)C=C4[C@@H]5C[C@@](C)(C(=O)O)CC[C@]5(C)CC[C@]43C)[C@@]2(C)CC[C@@H]1OC(=O)CN1CCC(C(N)=O)CC1 (stereo partly drawn) [6b, 3β-(2-(4-carbamoylpiperidin-1-yl)acetoxy)-11-oxo-olean-12-en-30-oic acid]	–	–	–	–	–	–	283.5 to 285 °C	0%	12.3%	0%	0%
CN1CCN(CC(=O)O[C@H]2CC[C@@]3(C)C(CC[C@]4(C)[C@@H]3C(=O)C=C3[C@@H]5C[C@@](C)(C(=O)O)CC[C@]5(C)CC[C@]34C)C2(C)C)CC1 (stereo partly drawn) [6c, 3β-(2-(4-methylpiperazin-1-yl)acetoxy)-11-oxo-olean-12-en-30-oic acid]	–	–	–	–	–	–	287.5 to 288.9 °C	0%	0%	0%	0%
CC1(C)C2CC[C@]3(C)[C@H](C(=O)C=C4[C@@H]5C[C@@](C)(C(=O)O)CC[C@]5(C)CC[C@]43C)[C@@]2(C)CC[C@@H]1OC(=O)CN1CCN(c2ccccn2)CC1 (stereo partly drawn) [6d, 3β-(2-(4-(pyridin-2-yl)piperazin-1-yl)acetoxy)-11-oxo-olean-12-en-30-oic acid]	–	–	–	–	–	–	294 to 295.6 °C	0%	0%	0%	0%
CC1(C(=O)O)CCC2(C)CCC3(C)C(=CC(=O)C4C5(C)CCC(OC(=O)Cc6ccc(Cl)cc6)C(C)(C)C5CCC43C)C2C1 (stereo not drawn) [7a, 3β-(2-(4-chlorophenyl)acetoxy)-11-oxo-olean-12-en-30-oic acid]	–	–	–	–	–	–	312 to 312.7 °C	33.3%	57.5%	11.3%	27.4%
CC1(C)C2CC[C@]3(C)[C@H](C(=O)C=C4[C@@H]5C[C@@](C)(C(=O)O)CC[C@]5(C)CC[C@]43C)[C@@]2(C)CC[C@@H]1OC(=O)Cc1ccc(F)cc1 (stereo partly drawn) [7b, 3β-(2-(4-fluorophenyl)acetoxy)-11-oxo-olean-12-en-30-oic acid]	–	–	–	–	–	–	305 to 307.7 °C	44.1%	59%	15.3%	31.2%
CC1(C)[C@@H](O)CC[C@]2(C)[C@H]3C(=O)C=C4[C@@H]5C[C@@](C)(C(=O)O)CC[C@]5(C)CC[C@@]4(C)[C@]3(C)CC[C@@H]12 [18β-GA, 18β-glycyrrhetinic acid]	> 40 µg/mL	> 40 µg/mL	> 40 µg/mL	> 40 µg/mL	> 40 µg/mL	> 40 µg/mL	–	0%	12.9%	0%	8.41%
